T1: VHZ-GST (Homo sapiens, UniProt Q9BVJ7)
T1 construct: made in house
T1 sequence (Q9BVJ7 1-150): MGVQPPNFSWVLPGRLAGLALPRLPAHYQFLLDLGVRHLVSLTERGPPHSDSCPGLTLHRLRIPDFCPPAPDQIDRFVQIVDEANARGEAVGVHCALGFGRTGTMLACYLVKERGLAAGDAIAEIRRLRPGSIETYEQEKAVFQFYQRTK

B1: VHZ human/mouse Chimeric mAb (Clone #209): mouse variable regions of hybridoma clone #209 (SEQ ID NO: 4 and 5) joined with human IgG1 constant region (antibody, listed as Mus musculus, V domains shown)
VH: LVDMDSRLNLVFLVLILKGVQCDVQLVESGGGLVQPGGSRKLSCAASGFTFSSFGMHWVRQAPEKGLEWVAYISSGSSTIYYADTVKGRFTISRDNPKNTLFLQMTSLRSEDTAMYYCARWQTARATRGYAMDYWGQGTSVTVSS
VL: VMTQSHKFMSTSVGDRVSITCKASQDVNTAVAWYQQKPGQSPKLLIYSASYRFTGVPDLFTGSGSGTDFTFTINSVQAEDLAVYYCQQHYSSPWTFGGGTKLEIKRADAAPTVSIFHHPVSLG
modifications: human IgG1 constant regions lacking entries

How the values were obtained:
VHZ-GST = biological target: T1, VHZ-GST; assay: Tyrosine phosphatase assay (ENZCHEK kit, fluorogenic substrate); type: biochemical; settings: 10 μM sodium orthovanadate added to the reaction; 0.675 picomoles VHZ-GST
Protocol: FIG. 3A. We test each protein (0.675 picomoles) for its PTPase activity.
The ENZCHEK™ kit (Invitrogen, R22065) is used. As per the manufacturer's protocol, the fluorogenic substrate is reconstituted in the assay wells with buffer; the desired potential PTPases (0.675 picomole for each protein: VHZ-GST, VHZ-GST+Phosphatase inhibitor, VHZ(C95S)-GST, and control GST) are added to the wells and incubated 30 min or 90 min respectively. The fluorescence is then quantified using a Gemini XPS microplate spectrofluorometer (Molecular Devices). Fluorescence is measured at 10 minute intervals at the excitation and emission wavelengths of 358 and 452 nm, respectively. The phosphatase inhibitor sodium orthovanadate (10 μM) is used in the assay as a negative control.
The PTPase activities of VHZ-GST, indicated by increasing blue fluorescence (excitation/emission maxima ˜358/452 nm), are abolished either by mutation of Cys 95 to Ser or by adding phosphatase inhibitor (sodium orthovanadate) into the assay (FIG. 3A, Panel A).

[1] = tested on: HCT116 colon cancer cells that express VHZ; assay: Formation of tumours by HCT116 colon cancer cells injected via the tail vein of nude mice; type: in vivo; settings: 1×10^6 HCT116 cells via tail vein on day 1; chimeric mAb into tail vein from day 3, then two administrations weekly; compared with PBS (untreated)
Description: FIG. 15B. Either PBS (untreated) or chimeric mAb (treated) is administrated into tail vein starting the first treatment on day 3; followed by two administrations weekly. Experiment periods: Top two animals starting 11 Feb.-2 Apr. 2009 bottom two animals starting 11 Feb.-13 Apr. 2009.
All animal studies have been approved by the Institutional Review Board of the IMCB. We follow strictly rules and policies of the Animal Facility Center of The Agency for Science, Technology and Research (A* STAR), Singapore. Nine-week old nude mice (Jackson Labs, USA) are used.
By western blot we confirm that HCT116 colon cancer cell line is VHZ positive comparing with MDCK cell line. 1×10^6 HCT116 cancer cells were injected into the circulation of nude mice via the tail vein on day 1.
Either PBS (untreated) or chimeric mAb (treated) was administrated into tail vein starting the first treatment on day 3; followed by two administrations weekly. Experiment periods: Top two animals starting 11 Feb.-2 Apr. 2009 bottom two animals starting 11 Feb.-13 Apr. 2009.

Row | Molecule | PTPase activity of VHZ (VHZ-GST) | formation of tumours by HCT116 colon cancer cells [1]
1 | [Na+].[Na+].[Na+].[O]=[V]([O-])([O-])[O-] [sodium orthovanadate] | completely abolished | 
2 | B1 |  | effectively inhibits the formation of tumours
